System: multi-cancer cell line panel
Assay: OncoPanel cytotoxicity assay, whole panel summary
Type: cell-based, human
Protocol: This Example describes an evaluation of the effect of a representative small molecule MDM2i on the growth of cells in a multi-cancer cell line panel. In this Example, the MDM2 inhibitors used were Compound A and Compound B p-toluenensulfonate. The panel included 250 human cancer cell lines (OncoPanel™, Ricerca Biosciences, Painesville, Ohio) that were evaluated in a high content drug screening analysis. The relative IC50 values for the cell lines were determined.
Cells were grown in RPMI 1640, 10% FBS, 2 mM L-alanyl-L-Glutamine, 1 mM Na Pyruvate, or a special medium in a humidified atmosphere of 5% CO2 at 37° C. Cells were seeded into 384-well plates and incubated in a humidified atmosphere of 5% CO2 at 37° C. Test compounds were added 24 hours post cell seeding. […]
Compounds were serially diluted 3.16-fold and assayed over 10 concentrations of inhibitor in a final assay concentration of 0.1% DMSO from the highest test concentration specified in the sample information chapter. Automated fluorescence microscopy was carried out using a GE Healthcare InCell Analyzer 1000, and images were collected with a 4×objective. Twelve bit tiff images were acquired using the InCell Analyzer 1000 3.2 and analyzed with Developer Toolbox 1.6 software.
Cell proliferation was measured by the signal intensity of the incorporated nuclear dye. […]

`CC[C@@H]1CNC2(CC2)CN1C(=O)[C@@H]1C[C@@H](F)CN1C(=O)C1=C(C(C)C)N2C(=N[C@@](C)(c3ccc(Cl)nc3)[C@H]2c2ccc(Cl)c(F)c2)S1` [Compound A, [(5R,6S)-5-(4-Chloro-3-fluorophenyl)-6-(6-chloropyridin-3-yl)-6-methyl-3-(propan-2-yl)-5,6-dihydroimidazo[2,1-b][1,3]thiazol-2-yl][(2S,4R)-2-{[(6R)-6-ethyl-4,7-diazaspiro[2.5]oct-7-yl]carbonyl}-4-fluoropyrrolidin-1-yl]methanone] was tested, and the “share of the cell lines with IC50 values of <1 μM” value was “Approximately 25%” and the “share of the cell lines with IC50 values of >10” value was “approximately 70%”.

Source: patent US20170283885A1, “ALGORITHMS FOR GENE SIGNATURE-BASED PREDICTOR OF SENSITIVITY TO MDM2 INHIBITORS” (DAIICHI SANKYO COMPANY, LIMITED, priority 2014, published 2017)
